The test relates to COLO 201. The experiment in a line: Cytotoxicity against human COLO201 cells assessed as inhibition of cell growth incubated for 24 hrs by WST-1 assay. Format: functional, cell-based. The following applies: COLO 201, 24 h.
As for `CC[C@@]1(O)C(=O)OCc2c1cc1n(c2=O)Cc2cc3ccccc3nc2-1` [CAMPTOTHECIN], the IC50 was 27 µM.
`O=C1C[C@@H](N[C@@H]2CC(=O)c3cccc4c3[C@@]23Oc2ccc(O)c5c2[C@](O4)(O3)[C@@H]2O[C@@H]2C5=O)[C@]23Oc4ccc(O)c5c4[C@](Oc4cccc1c42)(O3)[C@@H]1O[C@@H]1C5=O`: the IC50 was 5.7 µM.
Next, `Oc1ccc(O)c2c1[C@@H](O)C[C@@H](O)C21Oc2cccc3cccc(c23)O1`: 9.8 µM; `COc1cc(=O)oc2c1[C@H](CO)[C@@H]1[C@H](C2)C(=O)c2cccc3c2[C@@]12Oc1ccc(O)c4c1[C@](O3)(O2)[C@@H]1O[C@@H]1C4=O`: 5.4 µM.
As to `O=C1C=CC(=O)C2=C1[C@@H](O)[C@H]1O[C@H]1C21Oc2cccc3cccc(c23)O1`, the IC50 came to 9.4 µM.

The record behind these values is ChEMBL document CHEMBL5576106, “Highly Functionalized Spirobisnaphthalenes from Roussoella sp. KT4147” (J Nat Prod, 2024).
